# Measured values published in patent publication EP2819510B1, “ORGAN PERFUSION SYSTEM” (Rodos BioTarget GmbH, priority 2012, dated 2013).
# Assays:
# [1] = target: CYP3A4 (Homo sapiens, UniProt P08684); assay: CYP activity in perfused liver tissue, midazolam substrate
# [2] = target: CYP2C9 (Homo sapiens, UniProt P11712); assay: CYP activity in perfused liver tissue, diclofenac substrate
# [3] = initial 30-min interval, dropped continuously thereafter
# [4] = late (1-6 h), cirrhotic vs. non-cirrhotic liver
# Sequence of CYP2C9 (P11712 whole entry, the tested form may be a part): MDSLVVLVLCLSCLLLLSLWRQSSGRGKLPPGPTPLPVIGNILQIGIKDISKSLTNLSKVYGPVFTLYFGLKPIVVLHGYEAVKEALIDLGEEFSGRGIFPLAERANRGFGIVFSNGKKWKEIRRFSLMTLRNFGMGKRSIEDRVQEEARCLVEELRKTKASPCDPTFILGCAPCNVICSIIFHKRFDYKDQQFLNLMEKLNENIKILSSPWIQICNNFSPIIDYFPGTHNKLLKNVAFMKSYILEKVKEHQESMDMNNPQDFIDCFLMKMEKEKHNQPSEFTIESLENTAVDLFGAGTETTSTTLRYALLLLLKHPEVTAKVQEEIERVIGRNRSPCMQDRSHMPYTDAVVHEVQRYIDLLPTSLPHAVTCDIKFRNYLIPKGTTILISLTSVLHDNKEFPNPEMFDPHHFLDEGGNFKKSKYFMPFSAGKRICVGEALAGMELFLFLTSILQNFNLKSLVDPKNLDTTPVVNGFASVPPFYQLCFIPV
# Sequence of CYP3A4 (P08684 whole entry, the tested form may be a part): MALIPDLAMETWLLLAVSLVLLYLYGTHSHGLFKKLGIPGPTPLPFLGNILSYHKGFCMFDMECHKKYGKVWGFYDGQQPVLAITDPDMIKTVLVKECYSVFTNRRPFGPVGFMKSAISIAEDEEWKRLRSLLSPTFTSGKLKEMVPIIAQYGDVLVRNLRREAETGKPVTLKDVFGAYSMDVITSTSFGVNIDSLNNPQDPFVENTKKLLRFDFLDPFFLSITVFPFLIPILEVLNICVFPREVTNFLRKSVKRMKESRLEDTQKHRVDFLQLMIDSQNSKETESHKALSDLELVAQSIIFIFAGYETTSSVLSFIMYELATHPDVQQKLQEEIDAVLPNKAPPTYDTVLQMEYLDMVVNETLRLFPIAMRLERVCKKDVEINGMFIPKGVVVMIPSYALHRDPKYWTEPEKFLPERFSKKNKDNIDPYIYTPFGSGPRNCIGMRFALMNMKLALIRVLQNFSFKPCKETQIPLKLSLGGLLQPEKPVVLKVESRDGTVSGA
SMILES,"formation of phase-I metabolite [1, 3]","AUC of phase-I product, CL tissue higher than NC tissue [1, 4] [%]","formation of phase-I metabolite [2, 3]","AUC of phase-I product, CL tissue higher than NC tissue [2, 4] [%]"
"OCc1ncc2n1-c1ccc(Cl)cc1C(c1ccccc1F)=NC2 [OH-midazolam, 1'-hydroxymidazolam]",formed quite rapidly,53.8,–,–
"O=C(O)Cc1ccccc1Nc1c(Cl)cc(O)cc1Cl [OH-diclofenac, 4'-hydroxydiclofenac]",–,–,formed quite rapidly,26.9
